Laboratory results as given in publication PMC12441834, “Highly Potent and Subtype-Selective Sperm-Specific Potassium Channel SLO3 Inhibitors Display High Tissue Exposure in the Murine Female Reproductive Tract” (ACS Pharmacology & Translational Science, 2025).
Where two headings read alike, the source gives them in different places.

Legend:
human SLO3 [1] = target: T1, human SLO3 (Homo sapiens, UniProt A8MYU2); experiment: SLO3 patch-clamp electrophysiology, human SLO3-γ2 expressed in HEK293 cells; assay type: cell-based; details: transfected HEK293 cells (human SLO3-γ2), whole-cell patch clamp, currents at +100 mV; read-out: hSLO3 IC50
T1 construct: expressed in transfected cells
T1 sequence (A8MYU2 1-1149): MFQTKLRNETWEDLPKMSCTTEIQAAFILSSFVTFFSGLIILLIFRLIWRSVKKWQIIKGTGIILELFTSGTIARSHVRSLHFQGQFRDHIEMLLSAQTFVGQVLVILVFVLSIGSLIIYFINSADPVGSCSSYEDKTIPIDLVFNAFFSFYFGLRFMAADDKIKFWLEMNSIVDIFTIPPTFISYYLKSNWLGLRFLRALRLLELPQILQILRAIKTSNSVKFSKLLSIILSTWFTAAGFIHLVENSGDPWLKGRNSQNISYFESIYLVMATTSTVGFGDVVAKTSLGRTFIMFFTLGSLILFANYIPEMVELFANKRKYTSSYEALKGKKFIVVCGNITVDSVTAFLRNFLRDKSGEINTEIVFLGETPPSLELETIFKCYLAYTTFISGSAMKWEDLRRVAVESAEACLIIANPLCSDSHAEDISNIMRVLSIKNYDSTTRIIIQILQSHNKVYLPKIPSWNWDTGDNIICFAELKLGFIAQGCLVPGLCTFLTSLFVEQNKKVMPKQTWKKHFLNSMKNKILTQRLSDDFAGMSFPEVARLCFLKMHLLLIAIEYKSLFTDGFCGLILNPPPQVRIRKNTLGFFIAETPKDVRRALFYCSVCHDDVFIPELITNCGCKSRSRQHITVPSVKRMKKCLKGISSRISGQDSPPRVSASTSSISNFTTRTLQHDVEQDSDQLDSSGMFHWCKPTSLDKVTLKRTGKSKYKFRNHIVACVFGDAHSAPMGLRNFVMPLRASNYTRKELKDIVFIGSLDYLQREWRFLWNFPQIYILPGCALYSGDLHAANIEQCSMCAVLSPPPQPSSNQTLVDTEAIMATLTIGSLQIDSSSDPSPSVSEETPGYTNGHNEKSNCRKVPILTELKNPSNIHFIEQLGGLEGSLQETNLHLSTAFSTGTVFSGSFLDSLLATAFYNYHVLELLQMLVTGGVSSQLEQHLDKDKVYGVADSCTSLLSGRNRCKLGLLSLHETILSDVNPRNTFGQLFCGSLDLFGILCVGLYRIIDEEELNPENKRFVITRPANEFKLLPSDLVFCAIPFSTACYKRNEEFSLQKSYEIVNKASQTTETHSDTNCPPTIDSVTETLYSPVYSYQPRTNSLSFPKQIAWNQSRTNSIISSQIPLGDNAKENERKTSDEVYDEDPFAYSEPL
T1 sequence (Q8N7C0 24-313 partner): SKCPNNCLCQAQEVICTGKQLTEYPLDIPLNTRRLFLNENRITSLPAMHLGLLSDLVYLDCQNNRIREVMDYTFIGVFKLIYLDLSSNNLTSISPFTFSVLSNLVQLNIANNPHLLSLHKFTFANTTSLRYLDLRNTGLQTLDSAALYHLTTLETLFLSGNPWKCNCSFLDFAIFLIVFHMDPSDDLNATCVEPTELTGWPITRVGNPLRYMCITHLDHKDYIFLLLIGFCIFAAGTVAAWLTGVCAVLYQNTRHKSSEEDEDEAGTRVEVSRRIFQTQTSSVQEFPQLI
Description: (§1) HEK293 cells were transfected with the bicistronic vector pBUD-CE4.1 containing the genes of interest and a gene conferring antibiotic resistance. Cells were exposed to gradients of selection antibiotics, and optimal growth conditions for the stable lines were as follows: SLO3 and γ2 (SLO3-γ2) supplemented with 700 μg/mL Zeocin (Invitrogen); human SLO1 and β1 (SLO1-β1) with 1 mg/mL G418 (Sigma) and 3 μg/mL puromycin (Corning, Thermo Fisher); and human SLO1 and β4 (SLO1-β4) with 250 μg/mL Zeocin and 3 μg/mL puromycin. All cell lines were grown in Dulbecco’s Modified Eagle Medium (Gibco, Thermo Fisher) supplemented with 10% fetal bovine serum, 1% penicillin–streptomycin (Millipore Sigma), and selection antibiotics. To generate cells expressing SLO1 and γ2, stable SLO1-expressing HEK293 cells were transiently transfected with expression vectors for γ2 and green fluorescent protein (GFP) in the presence of lipofectamine (Invitrogen) for 5 h.
(§2) The cells were then washed and incubated in supplemented Dulbecco’s Modified Eagle Medium for 48 h before use. Patch-clamp electrophysiology was performed only on cells expressing GFP.
(§3) Currents in HEK293 cells were measured in the whole-cell patch-clamp configuration with an Axopatch 200B amplifier, digitized with a Digidata 1440A, and interfaced with Clampex 10.6.0.13 (Molecular Devices). […] An isolated cell was located on an Axiovert 200 microscope (Zeiss), and a gigaohm seal was formed with a borosilicate pipette with resistance between 3 and 6 MΩ and filled with internal solution (140 mM KMeSO3, 10 mM HEPES, 10 mM MES, 1 mM EGTA, pH 7). The seal was then broken by applying a negative pressure. Cells were kept at a holding potential of −60 mV for 50 ms, tested with a stepped voltage protocol from −80 to +150 mV in 10 mV increments for 100 ms, and then dropped to −40 mV for 50 ms with 2.5 s between sweeps. This protocol was used to record currents present with increasing concentration of our compound of interest or 3 μL/mL vehicle (DMSO) in the bath solution. Individual cells were tested with between 1 and 5 concentrations of the compound of interest or until the patch was lost. Currents were allowed to stabilize before the initial recording and after the perfusion solution was changed before recording.
Data were analyzed with a pClamp 10.6 (Molecular Devices). VU6047606 and VU6032735 inhibition dose–response relationships were fit by the Hill equation in OriginPro 7.5 (OriginLab Corporation): R=1/1+(C/IC50)^n+Ioff , in which R is fractional unblock, C is compound concentration, IC50 is the half inhibition concentration, n is the Hill coefficient, and I off is an offset item for leak current. Error bars in the figures represent the SDs. Each data point is averaged from at least 5 measurements. Curve-fitting results are reported as the fitted values with standard error, which was estimated by OriginPro according to the Error Propagation formula.

hERG [2] = target: T2, hERG (Homo sapiens, UniProt Q12809); experiment: hERG patch clamp electrophysiology (HEK-293-hERG); assay type: cell-based; details: for selectivity ratio: human, HEK-293 cells stably expressing hERG, pH 7.35, hERG IC50 / hSLO3 IC50, read-out: hERG selectivity [fold] (SLO3 versus hERG); for IC50: whole-cell patch clamp, HEK-293-hERG
T2 construct: expressed in transfected cells
Description: Whole-cell patch-clamp electrophysiology was used to record hERG currents from a stably transfected monoclonal cell line expressing human hERG. The HEK-293-hERG cell line was generously provided by Dr. David Weaver (Vanderbilt University). Cells were cultured in a 5% CO2 incubator at 37 °C, dissociated with 0.25% Trypsin-EDTA, and seeded onto 12 mm circular coverslips (Electron Microscopy Sciences, PA, USA) for same-day whole-cell patch-clamp recordings. hERG currents were recorded at room temperature by using an AxoPatch 200B amplifier with Clampex 10.7 software (Molecular Devices, USA). The voltage-clamp protocol consisted of a 4-s step to +30 mV from a −80 mV holding potential, followed by a 4-s step to −40 mV, repeated every 10 s. Data were sampled at 5 kHz and filtered at 1 kHz. Patch pipettes, pulled from 1.5 mm OD thin-walled capillaries (Warner Instruments, MA, USA) using a Sutter P-1000 puller (Sutter Instrument, CA, USA), had resistances of 2–3 MΩ when filled with intracellular solution containing (mM): 135 KCl, 10 HEPES, 1 EGTA, 2 MgCl2, 2 Na2ATP (pH 7.35, adjusted with KOH). The extracellular solution contained (mM): 135 NaCl, 5 KCl, 2 CaCl2, 1 MgCl2, 5 Glucose, 10 HEPES, and 10 Sucrose (pH 7.35, adjusted with NaOH). After establishing stable baseline hERG currents, cells were perfused with compounds at concentrations of 0.03–30 μM until response saturation (typically 2–8 min). Recordings concluded with a 10 μM Quinidine solution to isolate Quinidine-sensitive currents, with compound responses expressed as fractions of this current. Peak “tail” current amplitudes at the beginning of −40 mV steps were analyzed using Clampfit 11.2 (Molecular Devices). IC50 values were calculated by fitting the Hill equation to concentration–response curves (CRCs) using the built-in Y = Bottom + (Top – Bottom)/(1 + (IC50/X)^HillSlope) model (nonlinear regression fit: [Inhibitor] vs response – Variable slope (four parameters)) in GraphPad Prism 10.4 (GraphPad Software).

hSLO1 [3] = target: T3, hSLO1 (Homo sapiens, UniProt Q12791); experiment: SLO1 inhibition in HEK cells; assay type: cell-based; details: for SLO1 selectivity (fold selective for SLO3): SLO1 IC50 / hSLO3 IC50
T3 construct: expressed in transfected cells; host or cells: HEK293
Description: as §1, §2, §3

human SLO3 [4] = target: T1, human SLO3; set-up: method as in PMID 36649421; details: earlier work of the Santi Lab; cited from earlier work
hERG [5] = target: T2, hERG; set-up: method as in PMID 36649421; details: cited from earlier work
hSLO1 [6] = target: T3, hSLO1; set-up: method as in PMID 36649421; details: cited from earlier work

T2 sequence (Q12809 whole entry): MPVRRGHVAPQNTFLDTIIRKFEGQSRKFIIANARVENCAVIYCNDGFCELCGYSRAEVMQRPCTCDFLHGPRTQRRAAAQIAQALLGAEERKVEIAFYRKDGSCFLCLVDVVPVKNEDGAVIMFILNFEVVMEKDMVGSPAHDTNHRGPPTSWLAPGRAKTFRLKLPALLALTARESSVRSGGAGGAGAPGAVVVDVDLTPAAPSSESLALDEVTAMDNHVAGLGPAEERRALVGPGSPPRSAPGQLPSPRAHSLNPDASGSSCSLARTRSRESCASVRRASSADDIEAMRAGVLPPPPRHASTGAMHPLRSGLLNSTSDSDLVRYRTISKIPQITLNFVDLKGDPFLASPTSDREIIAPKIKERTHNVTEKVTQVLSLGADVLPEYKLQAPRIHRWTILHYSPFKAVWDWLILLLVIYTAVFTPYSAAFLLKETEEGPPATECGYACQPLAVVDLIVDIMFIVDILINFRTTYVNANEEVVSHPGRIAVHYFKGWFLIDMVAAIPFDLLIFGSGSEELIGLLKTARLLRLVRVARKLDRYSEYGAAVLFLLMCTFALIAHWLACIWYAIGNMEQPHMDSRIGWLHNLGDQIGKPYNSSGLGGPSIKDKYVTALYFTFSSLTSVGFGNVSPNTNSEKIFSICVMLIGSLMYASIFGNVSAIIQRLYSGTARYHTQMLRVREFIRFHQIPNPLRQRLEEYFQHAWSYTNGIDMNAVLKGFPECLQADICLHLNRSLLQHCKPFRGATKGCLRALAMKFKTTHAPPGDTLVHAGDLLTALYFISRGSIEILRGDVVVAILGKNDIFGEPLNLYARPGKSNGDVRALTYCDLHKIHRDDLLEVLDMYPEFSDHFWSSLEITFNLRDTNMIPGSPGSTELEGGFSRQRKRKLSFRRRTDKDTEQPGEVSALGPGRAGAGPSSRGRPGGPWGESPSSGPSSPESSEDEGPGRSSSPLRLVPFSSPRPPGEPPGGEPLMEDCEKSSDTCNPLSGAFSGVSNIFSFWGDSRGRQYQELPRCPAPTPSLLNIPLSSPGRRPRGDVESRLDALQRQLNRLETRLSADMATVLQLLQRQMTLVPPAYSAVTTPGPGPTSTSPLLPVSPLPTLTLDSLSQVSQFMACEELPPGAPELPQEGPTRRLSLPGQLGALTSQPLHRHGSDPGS
T3 sequence (Q12791 whole entry): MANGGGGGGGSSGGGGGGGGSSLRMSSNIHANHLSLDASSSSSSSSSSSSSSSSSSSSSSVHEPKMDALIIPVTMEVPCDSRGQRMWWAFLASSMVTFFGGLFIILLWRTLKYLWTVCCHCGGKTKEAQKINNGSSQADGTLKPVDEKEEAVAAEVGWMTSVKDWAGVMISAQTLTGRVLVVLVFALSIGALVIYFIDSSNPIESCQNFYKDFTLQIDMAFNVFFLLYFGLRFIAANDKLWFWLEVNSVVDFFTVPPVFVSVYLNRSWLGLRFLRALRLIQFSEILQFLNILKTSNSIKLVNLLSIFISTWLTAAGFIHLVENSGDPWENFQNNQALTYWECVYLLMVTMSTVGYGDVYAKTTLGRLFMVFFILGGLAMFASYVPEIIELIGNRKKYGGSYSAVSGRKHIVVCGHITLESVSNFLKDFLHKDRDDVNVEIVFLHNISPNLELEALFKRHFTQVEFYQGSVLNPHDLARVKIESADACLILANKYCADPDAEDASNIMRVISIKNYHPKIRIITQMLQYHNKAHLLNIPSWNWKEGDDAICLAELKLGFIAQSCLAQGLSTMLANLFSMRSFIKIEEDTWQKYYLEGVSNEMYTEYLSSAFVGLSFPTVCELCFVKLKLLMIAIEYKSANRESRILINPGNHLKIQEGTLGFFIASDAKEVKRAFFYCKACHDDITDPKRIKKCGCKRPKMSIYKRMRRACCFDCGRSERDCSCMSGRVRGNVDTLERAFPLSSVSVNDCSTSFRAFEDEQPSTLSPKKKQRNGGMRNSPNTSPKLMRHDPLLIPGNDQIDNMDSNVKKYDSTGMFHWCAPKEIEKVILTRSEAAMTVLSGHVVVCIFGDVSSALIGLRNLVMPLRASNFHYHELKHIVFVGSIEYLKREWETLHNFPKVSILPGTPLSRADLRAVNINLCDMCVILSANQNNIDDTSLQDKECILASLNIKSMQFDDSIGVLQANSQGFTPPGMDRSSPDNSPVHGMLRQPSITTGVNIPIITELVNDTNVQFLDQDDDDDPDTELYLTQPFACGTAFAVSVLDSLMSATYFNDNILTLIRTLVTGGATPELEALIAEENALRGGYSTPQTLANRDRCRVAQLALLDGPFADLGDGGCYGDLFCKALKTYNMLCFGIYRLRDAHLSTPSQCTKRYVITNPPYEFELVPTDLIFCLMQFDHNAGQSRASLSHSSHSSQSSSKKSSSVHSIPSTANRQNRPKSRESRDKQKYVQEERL

| Structure (SMILES) | IC50 (human SLO3 [1]) [nM] | selectivity ratio (hERG [2]) | IC50 (hERG [2]) [nM] | IC50 (hSLO1 [3]) [nM] | SLO1 selectivity (fold selective for SLO3) (hSLO1 [3]) [fold] | IC50 (human SLO3 [4]) [nM] | selectivity for SLO3 over hERG (hERG [5]) [fold] | selectivity for SLO3 over SLO1 (hSLO1 [6]) [fold] |
| --- | --- | --- | --- | --- | --- | --- | --- | --- |
| O=C(c1ccc(OCc2nc(C3CC3)cs2)cc1)N1CCN(c2ccc(C(F)(F)F)cn2)CC1 [VU0530373] | 445 | 1.1 | 511 | 6380 | 14 |  |  |  |
| O=C(CCCS(=O)(=O)c1ccc(Cl)cc1)N1CCC(Oc2nc3ccccc3s2)CC1 [VU0528254] | 223 | 4.2 | 928 | 34000 | 153 |  |  |  |
| COc1ccc(SCC2CCN(C(=O)Cc3ccc(S(=O)(=O)C(C)C)cc3)CC2)cc1 [VU0546110] |  |  |  |  |  | 1290 | 1.5 | 46 |
